Test systems include MDA-MB-435; ACHN renal; SR leukemia; SF-268 CNS; SNB-75 CNS; MDA-MB-231 breast; HS 578T breast; PC-3 prostate; NCI-H460 lung; OVCAR-3 ovarian.
Holding throughout (test): DTP human tumour cell line panel, 48 h

Each structure is given as a SMILES string. Several values for one entry are separate records, joined by “and”; a condition that tells them apart may be missing. Equal entries are not always repeated.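 96-well plates; 48 h exposure; 5 concentrations. Endpoints by linear interpolation between flanking doses. Not reached: highest tested concentration assigned. At the GI50, growth is halved. TGI is the concentration that stops growth completely.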 Some results are limits rather than exact numbers.

The text below walks through data of PubChem BioAssay (NCI).

As usually defined, the TGI is the concentration at which net growth stops. A lower TGI goes with more potent growth arrest. Regarding `O=C(O)c1ccccc1NCn1c(=S)sc2ccccc21`, the TGI was above 100 µM in the assay with MDA-MB-435; above 100 µM in the assay with ACHN renal; 81.6 µM with SR leukemia; above 100 µM in the assay with SF-268 CNS; above 100 µM with SNB-75 CNS; above 100 µM in the assay with MDA-MB-231 breast. The TGI with HS 578T breast was above 100 µM; in the assay on PC-3 prostate, above 100 µM; with NCI-H460 lung, 48.5 µM; in the assay with OVCAR-3 ovarian it was above 100 µM.

In general, GI50 refers to the concentration that inhibits growth by half. On to `COc1ccc2c(c1OC)O/C(=C\c1ncc([N+](=O)[O-])n1C)C2=O`, for which the GI50 was 0.277 µM in the assay with MDA-MB-435; 0.342 µM in the assay with ACHN renal; 0.103 µM in the assay with SR leukemia; 1.36 µM in the assay with SF-268 CNS; 2.14 µM with SNB-75 CNS; 1.37 µM in the assay with MDA-MB-231 breast. Also, the GI50 is 2.15 µM in the assay with HS 578T breast, 3.76 µM in the assay on PC-3 prostate, 0.925 µM with NCI-H460 lung and 1.6 µM with OVCAR-3 ovarian. Moreover, the TGI with MDA-MB-435 was 1.11 µM; in the assay on ACHN renal it was 1.46 µM; in the assay on SF-268 CNS, 6.39 µM; in the assay with SNB-75 CNS, 6.85 µM; in the assay with MDA-MB-231 breast, 5.32 µM; with HS 578T breast it was above 22.8 µM. Also, the TGI in the assay with PC-3 prostate was above 29.4 µM; in the assay with NCI-H460 lung, 4.83 µM; in the assay with OVCAR-3 ovarian, 6.16 µM.

`Cn1c(=O)c2c(nc(N/N=C/c3ccccc3C(=O)O)n2C)n(C)c1=O`: the concentration for total growth inhibition (TGI) in the assay on MDA-MB-435, in the assay on ACHN renal, with SR leukemia, in the assay with SF-268 CNS, in the assay on SNB-75 CNS and in the assay with MDA-MB-231 breast was above 100 µM in each case. Besides, the TGI in the assay on HS 578T breast, with PC-3 prostate, in the assay on NCI-H460 lung and in the assay on OVCAR-3 ovarian was above 100 µM each time.

For `Cc1nc2ccccc2c(=O)n1/N=C(\N=Nc1cc(Cl)ccc1Cl)c1ccccc1`, the TGI is 44.1 µM in the assay with MDA-MB-435; above 100 µM in the assay on ACHN renal; above 100 µM with SR leukemia; above 100 µM in the assay with SF-268 CNS; 74.1 µM in the assay with SNB-75 CNS; above 100 µM in the assay with MDA-MB-231 breast. Besides, the TGI with HS 578T breast, in the assay on PC-3 prostate, in the assay with NCI-H460 lung and in the assay with OVCAR-3 ovarian was above 100 µM each time.

Consider `CC[C@H]1OC(=O)[C@H](C)[C@@H](O[C@H]2C[C@@](C)(OC)[C@@H](O)[C@H](C)O2)[C@H](C)[C@@H](O[C@@H]2O[C@H](C)C[C@H](N(C)C)[C@H]2O)[C@](C)(OC)C/C(C)=C2/O[C@@]1(C)C=C2C`, for which the GI50 in the assay with MDA-MB-435 is 1.67 µM; in the assay with ACHN renal, 1.76 µM; with SR leukemia, 1.97 µM; in the assay on SF-268 CNS, 1.6 µM; in the assay with SNB-75 CNS, 1.27 µM; in the assay on MDA-MB-231 breast, 1.67 µM. In addition, the GI50 was 1.68 µM in the assay with HS 578T breast, 1.68 µM in the assay on PC-3 prostate, 1.81 µM in the assay with NCI-H460 lung and 1.76 µM with OVCAR-3 ovarian. For the same compound, the TGI in the assay on MDA-MB-435 was determined as 3.15 µM; in the assay on ACHN renal, 3.15 µM; in the assay on SR leukemia, 5.09 µM; in the assay on SF-268 CNS, 3.3 µM; in the assay on SNB-75 CNS, 2.64 µM; in the assay on MDA-MB-231 breast it was 3.13 µM. Besides, the total growth inhibition concentration (TGI) was 3.62 µM in the assay on HS 578T breast, 3.46 µM with PC-3 prostate, 3.35 µM in the assay on NCI-H460 lung and 3.28 µM in the assay with OVCAR-3 ovarian.

Consider `O=c1cccc(Cl)[nH]1`, for which the TGI in the assay with MDA-MB-435, in the assay with ACHN renal, in the assay with SR leukemia, in the assay with SF-268 CNS, with SNB-75 CNS and in the assay with MDA-MB-231 breast was above 100 µM in each case. For the same compound, the TGI in the assay with HS 578T breast, in the assay on PC-3 prostate, in the assay on NCI-H460 lung and with OVCAR-3 ovarian was above 100 µM throughout.

`Cc1cc(NN=C(c2ccc(O)cc2)c2ccc(O)cc2)c([N+](=O)[O-])cc1[N+](=O)[O-]`: the GI50 was 3.46 µM in the assay on MDA-MB-435; 4.08 µM with ACHN renal; 5.55 µM in the assay on SR leukemia; 5.34 µM with SF-268 CNS; 6.84 µM in the assay with SNB-75 CNS; 4.7 µM in the assay on MDA-MB-231 breast. The GI50 in the assay with HS 578T breast was 5.04 µM; with PC-3 prostate it was 3.23 µM; in the assay on NCI-H460 lung, 2.62 µM; in the assay with OVCAR-3 ovarian, 4.14 µM. Besides, the TGI in the assay with MDA-MB-435 was 14.4 µM; in the assay with ACHN renal, above 100 µM; with SR leukemia, 50.2 µM; in the assay with SF-268 CNS, 57.3 µM; with SNB-75 CNS, 60.5 µM; in the assay with MDA-MB-231 breast, 20.7 µM. Besides, the values for the TGI in the assay with HS 578T breast, in the assay with NCI-H460 lung and in the assay on OVCAR-3 ovarian were 39.8 µM, 8.57 µM and 19.4 µM, respectively.

For `COc1cc2ncnc(Oc3cccc(NC(=O)Nc4cc(C(C)(C)C(F)(F)F)on4)c3)c2cc1OC`, the concentration for 50% growth inhibition (GI50) was 0.335 µM and 0.484 µM in the assay with MDA-MB-435; 0.438 µM and 0.598 µM with ACHN renal; 2.95 µM and 2.6 µM in the assay on SR leukemia; 2.59 µM and 2.69 µM in the assay on SF-268 CNS; 2.79 µM and 6.27 µM in the assay on SNB-75 CNS; 1.03 µM and 0.571 µM with MDA-MB-231 breast. Also, the GI50 with HS 578T breast was 1.77 µM and 1.47 µM; in the assay with PC-3 prostate, 2.65 µM and 3.68 µM; in the assay with NCI-H460 lung it was 2.2 µM and 3.28 µM; in the assay on OVCAR-3 ovarian it was 2.66 µM and 3.62 µM. Also, the TGI with MDA-MB-435 was 5.74 µM and > 10 µM; in the assay on ACHN renal, 12.9 µM and > 10 µM; in the assay with SR leukemia, 11.9 µM and > 10 µM; with SF-268 CNS, 17.4 µM and > 10 µM; in the assay on SNB-75 CNS, 13.5 µM and > 10 µM; with MDA-MB-231 breast, 4.44 µM and 7.3 µM. In addition, the TGI with HS 578T breast was 10.2 µM and > 7.23 µM; in the assay with PC-3 prostate, 19.4 µM and > 10 µM; with NCI-H460 lung, 13.9 µM and > 10 µM; in the assay with OVCAR-3 ovarian, 16.5 µM and > 10 µM.

For the compound `COc1cc2cc(Oc3cccc(NC(=O)Nc4cc(C(F)(F)F)cc(C(F)(F)F)c4)c3)c(C)nc2cc1OC`, the GI50 in the assay with MDA-MB-435 was 1.8 µM; in the assay with ACHN renal it was 0.39 µM; in the assay with SR leukemia, 1.62 µM; in the assay on SF-268 CNS it was 1.62 µM; in the assay with SNB-75 CNS, 1.73 µM; in the assay with MDA-MB-231 breast, 1.08 µM. Moreover, the GI50 with HS 578T breast was 2.65 µM; with PC-3 prostate it was 0.423 µM; in the assay on NCI-H460 lung, 0.96 µM; in the assay with OVCAR-3 ovarian, 0.488 µM. The TGI in the assay with MDA-MB-435 came to 4.28 µM; in the assay on ACHN renal, 1.69 µM; in the assay with SR leukemia, 5.97 µM; in the assay on SF-268 CNS, 3.68 µM; with SNB-75 CNS, 5.05 µM; in the assay with MDA-MB-231 breast it was 2.49 µM. The TGI with HS 578T breast stood at 6.94 µM; with PC-3 prostate it was 2.48 µM; in the assay on NCI-H460 lung, 2.72 µM; in the assay with OVCAR-3 ovarian, 1.7 µM.
